Data reported in ChEMBL document CHEMBL5360624, “Exploitation of Proximity-Mediated Effects in Drug Discovery: An Update of Recent Research Highlights in Perturbing Pathogenic Proteins and Correlated Issues” (J Med Chem, 2023).

Experiments:
[1] = Oral bioavailability in NMRI mouse; type: ADME, organism-based; conditions: in vivo
[2] = molecular target: T1, von Hippel-Lindau disease tumor suppressor/SWI/SNF-related matrix-associated actin-dependent regulator of chromatin subfamily A member 2 (Homo sapiens, UniProt P51531+P40337); assay: Protac activity at VHL/SMARCA2 in human RKO cells assessed as degradation of SMARCA2; type: cell-based
Target sequence in this assay (P51531 whole entry): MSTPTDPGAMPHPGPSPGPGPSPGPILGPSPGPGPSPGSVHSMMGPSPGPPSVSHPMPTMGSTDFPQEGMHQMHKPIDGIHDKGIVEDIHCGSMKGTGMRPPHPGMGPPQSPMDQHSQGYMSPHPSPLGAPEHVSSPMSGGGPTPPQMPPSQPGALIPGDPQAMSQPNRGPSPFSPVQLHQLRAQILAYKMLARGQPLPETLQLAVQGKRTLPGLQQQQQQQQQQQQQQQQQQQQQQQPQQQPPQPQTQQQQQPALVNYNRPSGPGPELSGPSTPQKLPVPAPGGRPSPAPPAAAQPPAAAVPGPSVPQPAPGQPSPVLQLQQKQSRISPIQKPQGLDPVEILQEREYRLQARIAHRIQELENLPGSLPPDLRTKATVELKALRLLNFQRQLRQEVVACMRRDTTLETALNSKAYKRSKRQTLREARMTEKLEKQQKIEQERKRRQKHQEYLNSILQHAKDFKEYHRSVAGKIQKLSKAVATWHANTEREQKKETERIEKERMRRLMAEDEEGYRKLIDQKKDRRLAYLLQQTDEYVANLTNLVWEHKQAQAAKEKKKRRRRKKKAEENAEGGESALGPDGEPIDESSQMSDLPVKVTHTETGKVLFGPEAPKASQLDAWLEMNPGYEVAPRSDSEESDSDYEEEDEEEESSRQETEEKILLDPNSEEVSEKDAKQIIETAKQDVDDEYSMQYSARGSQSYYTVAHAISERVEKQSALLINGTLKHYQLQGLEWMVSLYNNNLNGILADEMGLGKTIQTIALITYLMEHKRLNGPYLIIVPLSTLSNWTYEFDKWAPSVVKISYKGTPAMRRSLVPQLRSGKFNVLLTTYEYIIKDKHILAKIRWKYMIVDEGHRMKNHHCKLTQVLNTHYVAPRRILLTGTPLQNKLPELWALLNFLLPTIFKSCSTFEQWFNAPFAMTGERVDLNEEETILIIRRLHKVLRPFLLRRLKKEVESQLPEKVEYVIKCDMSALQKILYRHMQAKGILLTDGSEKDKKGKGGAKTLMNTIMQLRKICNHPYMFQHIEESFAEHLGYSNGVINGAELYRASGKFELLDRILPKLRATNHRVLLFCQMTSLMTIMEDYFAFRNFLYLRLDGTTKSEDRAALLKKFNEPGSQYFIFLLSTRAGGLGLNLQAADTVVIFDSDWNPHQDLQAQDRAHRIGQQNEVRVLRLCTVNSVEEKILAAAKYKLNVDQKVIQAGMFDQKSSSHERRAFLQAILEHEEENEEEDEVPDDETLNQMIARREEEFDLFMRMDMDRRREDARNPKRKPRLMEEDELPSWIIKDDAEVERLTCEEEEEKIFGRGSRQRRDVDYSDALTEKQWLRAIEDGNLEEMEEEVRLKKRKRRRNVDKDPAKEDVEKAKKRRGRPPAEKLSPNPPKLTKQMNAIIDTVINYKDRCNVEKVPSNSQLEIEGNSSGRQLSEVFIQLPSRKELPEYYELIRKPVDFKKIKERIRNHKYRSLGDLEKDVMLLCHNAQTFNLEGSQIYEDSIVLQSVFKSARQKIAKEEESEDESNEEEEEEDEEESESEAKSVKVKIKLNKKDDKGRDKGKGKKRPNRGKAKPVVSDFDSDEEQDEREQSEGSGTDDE
Target sequence in this assay (P40337 whole entry): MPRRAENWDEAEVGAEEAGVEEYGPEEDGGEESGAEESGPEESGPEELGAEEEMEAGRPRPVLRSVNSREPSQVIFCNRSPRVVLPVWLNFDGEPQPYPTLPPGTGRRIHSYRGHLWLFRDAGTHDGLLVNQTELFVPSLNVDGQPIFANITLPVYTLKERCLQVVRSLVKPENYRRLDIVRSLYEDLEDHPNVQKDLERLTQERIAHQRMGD

[3] = molecular target: von Hippel-Lindau disease tumor suppressor/SWI/SNF-related matrix-associated actin-dependent regulator of chromatin subfamily A member 4 (Homo sapiens, UniProt P51532+P40337); assay: Protac activity at VHL/SMARCA4 in human RKO cells assessed as degradation of SMARCA4; type: cell-based
[4] = species on record: Homo sapiens; assay: Selectivity index, ratio of DC50 for VHL/SMARCA2 in human RKO cells to DC50 for VHL/SMARCA4 in human RKO cells; type: cell-based
[5] = molecular target: SWI/SNF-related matrix-associated actin-dependent regulator of chromatin subfamily A member 2 (Homo sapiens, UniProt P51531); assay: Inhibition of SMARCA2 (unknown origin) assessed as dissociation constant
[6] = molecular target: T1, von Hippel-Lindau disease tumor suppressor/SWI/SNF-related matrix-associated actin-dependent regulator of chromatin subfamily A member 2; assay: Protac activity at VHL/SMARCA2 (unknown origin) assessed as degradation of SMARCA2; type: protein assay
Target sequence in this assay (P51531 whole entry): as the sequence (P51531 whole entry) above
Target sequence in this assay (P40337 whole entry): as the sequence (P40337 whole entry) above

[7] = molecular target: T1, von Hippel-Lindau disease tumor suppressor/SWI/SNF-related matrix-associated actin-dependent regulator of chromatin subfamily A member 2; assay: Protac activity at VHL/SMARCA2 (unknown origin) assessed as degradation of SMARCA2 relative to control; type: protein assay
Target sequence in this assay (P40337 whole entry, looked up): as the sequence (P40337 whole entry) above
Target sequence in this assay (P51531 whole entry, looked up): as the sequence (P51531 whole entry) above

von Hippel-Lindau disease tumor suppressor/SWI/SNF-related matrix-associated actin-dependent regulator of chromatin subfamily A member 4, sequence (P51532 whole entry): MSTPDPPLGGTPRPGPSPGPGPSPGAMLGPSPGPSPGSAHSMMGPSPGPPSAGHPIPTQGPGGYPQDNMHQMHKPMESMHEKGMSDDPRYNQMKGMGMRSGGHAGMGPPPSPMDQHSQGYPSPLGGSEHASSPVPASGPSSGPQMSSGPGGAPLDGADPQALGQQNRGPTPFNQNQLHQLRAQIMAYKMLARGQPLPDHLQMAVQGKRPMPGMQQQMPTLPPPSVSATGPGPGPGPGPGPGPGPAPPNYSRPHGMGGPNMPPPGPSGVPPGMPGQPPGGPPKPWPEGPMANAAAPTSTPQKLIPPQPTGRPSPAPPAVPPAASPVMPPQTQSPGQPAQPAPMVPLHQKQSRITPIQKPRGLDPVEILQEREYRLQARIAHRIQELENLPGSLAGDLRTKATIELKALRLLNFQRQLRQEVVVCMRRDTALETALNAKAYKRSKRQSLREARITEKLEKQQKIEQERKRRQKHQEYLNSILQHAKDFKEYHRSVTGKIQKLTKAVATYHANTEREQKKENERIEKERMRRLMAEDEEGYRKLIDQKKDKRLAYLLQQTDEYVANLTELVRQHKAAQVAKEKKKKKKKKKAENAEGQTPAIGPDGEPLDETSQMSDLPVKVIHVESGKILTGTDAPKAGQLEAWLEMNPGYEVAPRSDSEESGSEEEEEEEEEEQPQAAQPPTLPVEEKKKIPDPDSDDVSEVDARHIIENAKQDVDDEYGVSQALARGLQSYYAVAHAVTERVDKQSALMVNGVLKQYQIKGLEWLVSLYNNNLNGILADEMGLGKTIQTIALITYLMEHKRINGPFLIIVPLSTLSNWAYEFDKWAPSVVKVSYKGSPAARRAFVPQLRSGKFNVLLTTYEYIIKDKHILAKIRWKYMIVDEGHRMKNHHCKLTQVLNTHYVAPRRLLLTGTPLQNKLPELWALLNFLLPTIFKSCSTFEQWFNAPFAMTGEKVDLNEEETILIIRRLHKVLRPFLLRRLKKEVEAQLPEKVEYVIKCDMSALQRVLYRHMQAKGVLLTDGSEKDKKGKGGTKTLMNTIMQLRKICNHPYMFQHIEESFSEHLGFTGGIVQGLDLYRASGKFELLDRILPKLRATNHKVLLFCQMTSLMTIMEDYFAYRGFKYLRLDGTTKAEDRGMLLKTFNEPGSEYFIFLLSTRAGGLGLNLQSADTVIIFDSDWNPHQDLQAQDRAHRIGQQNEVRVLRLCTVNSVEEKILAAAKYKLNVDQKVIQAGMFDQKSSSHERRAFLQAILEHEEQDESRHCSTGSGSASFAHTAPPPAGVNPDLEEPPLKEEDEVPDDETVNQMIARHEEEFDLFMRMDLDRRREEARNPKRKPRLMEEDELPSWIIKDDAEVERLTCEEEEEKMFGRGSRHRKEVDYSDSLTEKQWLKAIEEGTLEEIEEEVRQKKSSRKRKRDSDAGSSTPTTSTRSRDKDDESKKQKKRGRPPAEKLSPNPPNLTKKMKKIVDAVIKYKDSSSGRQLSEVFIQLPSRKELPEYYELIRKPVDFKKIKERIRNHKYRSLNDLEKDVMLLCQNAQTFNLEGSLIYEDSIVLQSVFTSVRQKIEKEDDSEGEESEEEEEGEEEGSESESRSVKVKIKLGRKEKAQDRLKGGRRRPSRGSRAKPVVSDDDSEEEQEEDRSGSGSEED
von Hippel-Lindau disease tumor suppressor/SWI/SNF-related matrix-associated actin-dependent regulator of chromatin subfamily A member 4, sequence (P40337 whole entry): as the sequence (P40337 whole entry) above
SWI/SNF-related matrix-associated actin-dependent regulator of chromatin subfamily A member 2, sequence (P51531 whole entry): as the sequence (P51531 whole entry) above

In the case of `Cc1ncsc1-c1ccc(CNC(=O)[C@@H]2C[C@@H](O)CN2C(=O)[C@@H](NC(=O)C2(F)CC2)C(C)(C)C)c(CC[C@H](C)CCN2CCC(c3ccc4c(c3)n(C3CCCC3)c3nc(=O)c5c(Br)cccc5n43)CC2)c1`, the bioavailability [1] is reported as 22%, the DC50 [2] is reported as 1 nM and the DC50 [3] is reported as 32 nM. For the same molecule, the Selectivity Index [4] was greater than 30.
`O=c1nc2n(C3CCCC3)c3cc(C4CCNCC4)ccc3n2c2cccc(Br)c12` gave a Kd [5] of 46 nM.
Work on `Cc1ncsc1-c1ccc(CNC(=O)[C@@H]2C[C@@H](O)CN2C(=O)[C@@H](NC(=O)C2(F)CC2)C(C)(C)C)c(OCCCN2CCC(c3ccc4c(c3)n(C3CCCC3)c3nc(=O)c5c(Br)cccc5n43)CC2)c1` yielded a DC50 [6] of 78 nM and an Emax [7] of 46%.
